Reference: patent US20100278847A1, “MUTUALLY SUPPRESSIVE GENE/INHIBITOR COMBINATIONS FOR NON-ANTIBIOTIC SELECTION OF RECOMBINANT STRAINS” (priority 2007, published 2010)

Experiments:
[1] = system: DH5α/pFab; assay: Cell viability, SYTOX green staining flow cytometry; format: cell-based, E. coli; conditions: 0.5-2 μM triclosan, overnight culture
Protocol: DH5α/pFab were grown overnight in the absence or presence of 0.5-2 μM triclosan and subjected to SYTOX green staining flow cytometry, as previously described (Roth et al. 1997). DH5α/pUC19 was included as a control for green fluorescence of live and heat-treated dead cells. Samples were excited with a 488 nm air-cooled argon ion laser in the CyFlow SL flow cytometer (Partec GmbH). Threshold settings were enabled on forward scatter to exclude cell debris. The forward and side scatter dot plot was used to identify and gate cell populations. Fluorescence was measured at 520 nm Viable and dead cell populations were counted using the Partec FloMax software version 2.4e.

[2] = system: DH5α; assay: Growth rate from exponential phase (OD550 over time); format: cell-based, E. coli; conditions: media containing 0-2 μM triclosan
Protocol: Growth rate was calculated from the exponential phase of growth, which was monitored as increased OD550 over time by the VERSAmax spectrophotometer (Molecular Devices). An overnight culture (16 h), standardized by OD550 to yield approximately 7×10^5 cfu/ml, was grown in 200 μl volumes per well in a 96-well plate for 24 h with agitation for 5 s every 5 min, when OD550 readings were taken. Triclosan dissolved in DMSO was added to give 0-2 μM Triclosan and 1% DMSO final concentrations.

[3] = cited from earlier work

Oc1cc(Cl)ccc1Oc1ccc(Cl)cc1Cl [triclosan]
Proportion of green fluorescent (dead) cells in DH5α/pFab culture [1]: decreased with increasing triclosan concentrations
Triclosan concentration at which growth rates of pUCFA and pFab clones were highest [2]: 1 μM
Solubility in water [3]: poor solubility in water
